Source: patent publication US20060069132A1, “Azolecarboxamide herbicides” (priority 2004, published 2006)

Key:
[1] = test system: smallflower umbrella sedge; assay: Test C flooded paddy test; assay type: in vivo, Cyperus difformis
giant foxtail = assay: Test B pre-/postemergence herbicide test; assay type: in vivo, Setaria faberi; conditions: for Foxtail, Giant plant response rating: postemergence
Method in brief: (§1)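 Flooded paddy rice and barnyardgrass were treated at the 2-leaf stage; upland plantings received compound either on sown seed or on 1- to 4-leaf seedlings. All were kept 13–15 days in a greenhouse and scored visually, 0–100, relative to untreated plants.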

morningglory = assay: Test B pre-/postemergence herbicide test; assay type: in vivo, Ipomoea coccinea; conditions: for Morningglory plant response rating: postemergence
Method in brief: (§2)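 Test chemicals in a non-phytotoxic solvent mixture with surfactant were applied preemergence to seeded species and postemergence to plants 2-18 cm tall (1- to 4-leaf stage); rice and barnyardgrass were also tested in a flooded paddy at the 2-leaf stage. Visual rating versus controls after 13-15 days in greenhouse, scale 0 (no effect) to 100 (complete control).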

wheat = assay: Test B postemergence herbicide test; assay type: in vivo, Triticum aestivum; design: key to Wheat plant response rating: 0 = no effect, 100 = complete control; conditions: postemergence
Method in brief: (§3)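 Each value is a visual 0–100 response rating taken against controls 13 to 15 days after treatment in the greenhouse. Plants received formulated chemical postemergence at the 1- to 4-leaf stage or, in flooded paddy, at the 2-leaf stage.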

velvetleaf = assay: Test B pre-/postemergence herbicide test; assay type: in vivo, Abutilon theophrasti; conditions: for Velvetleaf plant response rating: postemergence
Method in brief: as §1

barnyardgrass [2] = assay: Test B pre-/postemergence herbicide test; assay type: in vivo, Echinochloa crus-galli; conditions: for Barnyardgrass plant response rating: postemergence
Method in brief: as §2

ducksalad [3] = assay: Test B flooded paddy test; assay type: in vivo, Heteranthera limosa; conditions: 1000 g ai/ha, scale 0 to 100 (0 no effect, 100 complete control)
Method in brief: (§4)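 Paddy species grown to the 2-leaf stage under flooding; blackgrass sprayed postemergence at 2–18 cm (1- to 4-leaf stage). Plants kept in a greenhouse for 13 to 15 days, then visually rated against controls on 0 (no effect) to 100 (complete control).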

rice [4] = assay: Test B pre-/postemergence herbicide test; assay type: in vivo, Oryza sativa; conditions: 0 = no effect, 100 = complete control, preemergence
Method in brief: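 Evaluation is visual, comparing treated with control plants on a scale where 0 means no effect and 100 means full control. Treatments were preemergence, or postemergence on seedlings 2–18 cm tall, and held 13–15 days in the greenhouse.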

barnyardgrass [5] = assay: Test B flooded paddy test; assay type: in vivo, Echinochloa crus-galli; conditions: 1000 g ai/ha, scale 0 to 100 (0 no effect, 100 complete control)
Method in brief: as §4

rice [6] = assay: Test B flooded paddy test; assay type: in vivo, Oryza sativa; conditions: 1000 g ai/ha, scale 0 to 100 (0 no effect, 100 complete control)
Method in brief: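 After treating 2-leaf paddy plants or 2–18 cm postemergence plants (1 to 4 leaves) with formulated chemical, researchers kept them in a greenhouse for 13–15 days. Effects were judged visually versus controls: 0 indicates none, 100 total control.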

Surinam grass = assay: Test B pre-/postemergence herbicide test; assay type: in vivo, Urochloa decumbens; conditions: for Surinam Grass plant response rating: postemergence
Method in brief: as §1

large crabgrass = assay: Test B pre-/postemergence herbicide test; assay type: in vivo, Digitaria sanguinalis; conditions: for Crabgrass, Large plant response rating: postemergence
Method in brief: as §1

barnyardgrass [7] = assay: Test C flooded paddy test; assay type: in vivo, Echinochloa crus-galli
Method in brief: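 Ratings (0 = no effect, 100 = complete control) come from visual comparison with untreated plants after 12 to 14 days in the greenhouse. Treatment was postemergence at the 1- to 4-leaf stage (2–18 cm), or at the 2-leaf stage for the flooded paddy barnyardgrass.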

ducksalad [8] = assay: Test C flooded paddy test; assay type: in vivo, Heteranthera limosa
lambsquarters = assay: Test B pre-/postemergence herbicide test; assay type: in vivo, Chenopodium album; conditions: for Lambsquarters plant response rating: postemergence
Method in brief: as §1

pigweed = assay: Test B pre-/postemergence herbicide test; assay type: in vivo, Amaranthus retroflexus; conditions: for Pigweed plant response rating: postemergence
Method in brief: as §1

wild oat = assay: Test B postemergence herbicide test; assay type: in vivo, Avena fatua; conditions: postemergence
Method in brief: as §3

cocklebur = assay: Test B pre-/postemergence herbicide test; assay type: in vivo, Xanthium strumarium; conditions: for Cocklebur plant response rating: postemergence
Method in brief: as §2

blackgrass = assay: Test B postemergence herbicide test; assay type: in vivo, Alopecurus myosuroides; conditions: postemergence
Method in brief: as §4

rice [9] = assay: Test C flooded paddy test; assay type: in vivo, Oryza sativa
Method in brief: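 Postemergence sprays applied to plants 2 to 18 cm tall (1- to 4-leaf stage); paddy species grown to 2-leaf stage under flooding. After 12 to 14 days in greenhouse, visual rating versus untreated controls on 0–100 scale (0 no effect, 100 complete control).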

corn = assay: Test B pre-/postemergence herbicide test; assay type: in vivo, Zea mays; conditions: for Corn plant response rating: postemergence
Method in brief: as §1

[10] = test system: small flower umbrella sedge; assay: Test B flooded paddy test; assay type: in vivo, Cyperus difformis; conditions: 1000 g ai/ha, scale 0 to 100 (0 no effect, 100 complete control)
Method in brief: as §4

[11] = 125 g ai/ha, scale 0 to 100 (0 no effect, 100 complete control)
[12] = 250 g ai/ha, scale of 0 to 100, 0 is no effect, 100 is complete control
[13] = 500 g ai/ha, visual rating after 12 to 14 days, scale 0 to 100 (0 no effect, 100 complete control)
[14] = 125 g ai/ha, 0 = no effect, 100 = complete control, preemergence
[15] = 500 g ai/ha, visual rating, 0 = no effect, 100 = complete control, preemergence
[16] = 125 g ai/ha, visual rating, scale 0 (no effect) to 100 (complete control)
[17] = 500 g ai/ha, scale 0 to 100, 0 is no effect, 100 is complete control

CCn1nc(C(C)(C)C)c(F)c1C(=O)Nc1cccc(C(=O)N(C)C)n1 [Compound 274]
Sedge, Umbrella plant response rating ([1]; 62 g ai/ha, scale 0 to 100): 0 | Sedge, Umbrella plant response rating [1, 11]: 50 | Sedge, Umbrella plant response rating [1, 12]: 70 | Plant response rating, Sedge, Umbrella [1, 13]: 75 | Foxtail, Giant plant response rating (0 to 100 scale) (giant foxtail; [14]): 10 | Plant response rating, Foxtail, Giant (giant foxtail; [15]): 90 | Foxtail, Giant plant response rating (giant foxtail; [16]): 20 | Foxtail, Giant plant response rating (giant foxtail; [17]): 50 | Morningglory plant response rating (0 to 100 scale) (morningglory; [14]): 0 | Plant response rating, Morningglory (morningglory; [15]): 10 | Morningglory plant response rating (morningglory; [16]): 0 | Morningglory plant response rating (morningglory; [17]): 60 | Wheat plant response rating (wheat; [16]): 20 | Wheat plant response rating (wheat; [17]): 20 | Velvetleaf plant response rating (0 to 100 scale) (velvetleaf; [14]): 20 | Plant response rating, Velvetleaf (velvetleaf; [15]): 70 | Velvetleaf plant response rating (velvetleaf; [16]): 10 | Velvetleaf plant response rating (velvetleaf; [17]): 10 | Barnyardgrass plant response rating (0 to 100 scale) (barnyardgrass [2]; [14]): 60 | Plant response rating, Barnyardgrass (barnyardgrass [2]; [15]): 100 | Barnyardgrass plant response rating (barnyardgrass [2]; [16]): 0 | Barnyardgrass plant response rating (barnyardgrass [2]; [17]): 10 | Ducksalad plant response rating (ducksalad [3]): 70 | Rice plant response rating (0 to 100 scale) (rice [4]; 125 g ai/ha): 30 | Plant response rating, Rice (rice [4]; 500 g ai/ha, visual rating): 80 | Barnyardgrass plant response rating (barnyardgrass [5]): 70 | Rice plant response rating (rice [6]): 60 | Surinam Grass plant response rating (0 to 100 scale) (Surinam grass; [14]): 50 | Plant response rating, Surinam Grass (Surinam grass; [15]): 80 | Surinam Grass plant response rating (Surinam grass; [16]): 20 | Surinam Grass plant response rating (Surinam grass; [17]): 30 | Crabgrass, Large plant response rating (0 to 100 scale) (large crabgrass; [14]): 10 | Plant response rating, Crabgrass, Large (large crabgrass; [15]): 100 | Crabgrass, Large plant response rating (large crabgrass; [16]): 0 | Crabgrass, Large plant response rating (large crabgrass; [17]): 0 | Barnyardgrass plant response rating (barnyardgrass [7]; 62 g ai/ha, scale 0 to 100 (0 no effect, 100 complete control)): 0 | Barnyardgrass plant response rating (barnyardgrass [7]; [11]): 10 | Barnyardgrass plant response rating (barnyardgrass [7]; [12]): 30 | Plant response rating, Barnyardgrass (barnyardgrass [7]; [13]): 60 | Ducksalad plant response rating (ducksalad [8]; 62 g ai/ha, scale 0 to 100): 0 | Ducksalad plant response rating (ducksalad [8]; [11]): 0 | Ducksalad plant response rating (ducksalad [8]; [12]): 0 | Plant response rating, Ducksalad (ducksalad [8]; [13]): 20 | Lambsquarters plant response rating (0 to 100 scale) (lambsquarters; [14]): 70 | Plant response rating, Lambsquarters (lambsquarters; [15]): 100 | Lambsquarters plant response rating (lambsquarters; [16]): 40 | Lambsquarters plant response rating (lambsquarters; [17]): 70 | Pigweed plant response rating (0 to 100 scale) (pigweed; [14]): 30 | Plant response rating, Pigweed (pigweed; [15]): 100 | Pigweed plant response rating (pigweed; [16]): 40 | Pigweed plant response rating (pigweed; [17]): 60 | Oat, Wild plant response rating (wild oat; [16]): 20 | Oat, Wild plant response rating (wild oat; [17]): 40 | Cocklebur plant response rating (0 to 100 scale) (cocklebur; [14]): 0 | Plant response rating, Cocklebur (cocklebur; [15]): 0 | Cocklebur plant response rating (cocklebur; [16]): 0 | Cocklebur plant response rating (cocklebur; [17]): 10 | Blackgrass plant response rating (blackgrass; [16]): 30 | Blackgrass plant response rating (blackgrass; [17]): 30 | Rice plant response rating (rice [9]; 62 g ai/ha, scale 0 to 100): 0 | Rice plant response rating (rice [9]; [11]): 0 | Rice plant response rating (rice [9]; [12]): 15 | Plant response rating, Rice (rice [9]; [13]): 45 | Corn plant response rating (0 to 100 scale) (corn; [14]): 0 | Plant response rating, Corn (corn; [15]): 80 | Corn plant response rating (corn; [16]): 0 | Corn plant response rating (corn; [17]): 20 | Sedge, Umbrella plant response rating [10]: 80
